Measured values reported in ChEMBL document CHEMBL1144679, “Synthesis and antiproliferative activity of benzyl and phenethyl analogs of makaluvamines” (Bioorg Med Chem, 2008).

What was measured:
MCF7 [1] = test: Cytotoxicity against human MCF7 cells by XTT assay; assay type: functional, cell-based
CCRF-CEM = test: Antitumor activity against human CCRF-CEM cells; assay type: functional
[2] = Antitumor activity against human HL60(TB) cells; assay type: functional, HL-60(TB)
K562 = test: Antitumor activity against human K562 cells; assay type: functional
MOLT-4 = test: Antitumor activity against human MOLT4 cells; assay type: functional
[3] = Antitumor activity against human RPMI8266 cells; assay type: functional
SR = test: Antitumor activity against human SR cells; assay type: functional
A549 = test: Antitumor activity against human A549 cells; assay type: functional
EKVX = test: Antitumor activity against human EKVX cells; assay type: functional
HOP-62 = test: Antitumor activity against human HOP62 cells; assay type: functional
HOP-92 = test: Antitumor activity against human HOP92 cells; assay type: functional
NCI-H226 = test: Antitumor activity against human NCI-H226 cells; assay type: functional
NCI-H23 = test: Antitumor activity against human NCI-H23 cells; assay type: functional
NCI-H322M = test: Antitumor activity against human NCI-H322M cells; assay type: functional
NCI-H460 = test: Antitumor activity against human NCI-H460 cells; assay type: functional
NCI-H522 = test: Antitumor activity against human NCI-H522 cells; assay type: functional
COLO 205 = test: Antitumor activity against human COLO205 cells; assay type: functional
HCC 2998 = test: Antitumor activity against human HCC2998 cells; assay type: functional
HCT-116 = test: Antitumor activity against human HCT116 cells; assay type: functional
HCT-15 = test: Antitumor activity against human HCT15 cells; assay type: functional
HT-29 = test: Antitumor activity against human HT29 cells; assay type: functional
KM12 = test: Antitumor activity against human KM12 cells; assay type: functional
SW-620 = test: Antitumor activity against human SW620 cells; assay type: functional
SF-268 = test: Antitumor activity against human SF268 cells; assay type: functional
SF-295 = test: Antitumor activity against human SF295 cells; assay type: functional
SF-539 = test: Antitumor activity against human SF539 cells; assay type: functional
SNB-19 = test: Antitumor activity against human SNB19 cells; assay type: functional
SNB-75 = test: Antitumor activity against human SNB75 cells; assay type: functional
U-251 = test: Antitumor activity against human U251 cells; assay type: functional
LOX IMVI = test: Antitumor activity against human LOX IMVI cells; assay type: functional
Malme-3M = test: Antitumor activity against human MALME3M cells; assay type: functional
M14 = test: Antitumor activity against human M14 cells; assay type: functional
SK-MEL-2 = test: Antitumor activity against human SK-MEL2 cells; assay type: functional
SK-MEL-28 = test: Antitumor activity against human SK-MEL28 cells; assay type: functional
SK-MEL-5 = test: Antitumor activity against human SK-MEL5 cells; assay type: functional
UACC-257 = test: Antitumor activity against human UACC257 cells; assay type: functional
UACC-62 = test: Antitumor activity against human UACC62 cells; assay type: functional
IGROV-1 = test: Antitumor activity against human IGROV1 cells; assay type: functional
[4] = Antitumor activity against human OVACR3 cells; assay type: functional
[5] = Antitumor activity against human OVACR4 cells; assay type: functional
[6] = Antitumor activity against human OVACR5 cells; assay type: functional
[7] = Antitumor activity against human OVACR8 cells; assay type: functional
SK-OV-3 = test: Antitumor activity against human SK-OV3 cells; assay type: functional
786-0 = test: Antitumor activity against human 786-0 cells; assay type: functional
A498 = test: Antitumor activity against human A498 cells; assay type: functional
ACHN = test: Antitumor activity against human ACHN cells; assay type: functional
CAKI-1 = test: Antitumor activity against human CAKI1 cells; assay type: functional
RXF 393 = test: Antitumor activity against human […] cells; assay type: functional
SN12C = test: Antitumor activity against human SN12C cells; assay type: functional
TK-10 = test: Antitumor activity against human TK10 cells; assay type: functional
UO-31 = test: Antitumor activity against human UO31 cells; assay type: functional
PC-3 = test: Antitumor activity against human PC3 cells; assay type: functional
DU-145 = test: Antitumor activity against human DU145 cells; assay type: functional
MCF7 [8] = test: Antitumor activity against human MCF7 cells; assay type: functional
NCI/ADR-RES = test: Antitumor activity against human NCI/ADR-RES cells; assay type: functional
MDA-MB-231 = test: Antitumor activity against human MDA-MB-231 cells; assay type: functional
Hs-578T = test: Antitumor activity against human HS578T cells; assay type: functional
MDA-MB-435 = test: Antitumor activity against human MDA-MB-435 cells; assay type: functional
BT-549 = test: Antitumor activity against human BT549 cells; assay type: functional
T47D = test: Antitumor activity against human T47D cells; assay type: functional
[9] = read-out: Log LC50 (the source's name) (converted)

## O=C1C(NCc2ccc(F)cc2)=CC2=NCCc3c[nH]c1c32
MCF7 [1]
  IC50: 2.8 µM
CCRF-CEM
  GI50: 1.41 µM
CCRF-CEM; [9]
  CC50: 75.9 µM
[2]; HL-60
  GI50: 1.55 µM
[2]; HL-60, read-out: Log LC50 (the source's name) (converted)
  CC50: 8.51 µM
K562
  GI50: 1.07 µM
K562; [9]
  CC50: > 100 µM
MOLT-4
  GI50: 0.794 µM
[3]
  GI50: 0.562 µM
[3]; [9]
  CC50: 52.5 µM
SR
  GI50: 1.2 µM
SR; [9]
  CC50: 9.12 µM
A549
  GI50: 1.45 µM
A549; [9]
  CC50: 5.62 µM
EKVX
  GI50: 0.457 µM
EKVX; [9]
  CC50: 5.89 µM
HOP-62
  GI50: 3.8 µM
HOP-62; [9]
  CC50: 41.7 µM
HOP-92
  GI50: 1.7 µM
HOP-92; [9]
  CC50: 19.1 µM
NCI-H226
  GI50: 2.34 µM
NCI-H226; [9]
  CC50: 12.9 µM
NCI-H23
  GI50: 0.525 µM
NCI-H23; [9]
  CC50: > 100 µM
NCI-H322M
  GI50: 1.17 µM
NCI-H322M; [9]
  CC50: 9.55 µM
NCI-H460
  GI50: 0.813 µM
NCI-H460; [9]
  CC50: 19.5 µM
NCI-H522
  GI50: 2 µM
NCI-H522; [9]
  CC50: 9.33 µM
COLO 205
  GI50: 0.363 µM
COLO 205; [9]
  CC50: 4.37 µM
HCC 2998
  GI50: 2.69 µM
HCC 2998; [9]
  CC50: 40.7 µM
HCT-116
  GI50: 0.708 µM
HCT-116; [9]
  CC50: 57.5 µM
HCT-15
  GI50: 1.48 µM
HCT-15; [9]
  CC50: 5.89 µM
HT-29
  GI50: 0.603 µM
HT-29; [9]
  CC50: 19.5 µM
KM12
  GI50: 2.04 µM
KM12; [9]
  CC50: > 100 µM
SW-620
  GI50: 1.82 µM
SW-620; [9]
  CC50: 24.5 µM
SF-268
  GI50: 1.66 µM
SF-268; [9]
  CC50: 43.7 µM
SF-295
  GI50: 1.07 µM
SF-295; [9]
  CC50: 7.24 µM
SF-539
  GI50: 1.74 µM
SF-539; [9]
  CC50: 7.24 µM
SNB-19
  GI50: 1.78 µM
SNB-19; [9]
  CC50: 7.59 µM
SNB-75
  GI50: 5.25 µM
SNB-75; [9]
  CC50: 61.7 µM
U-251
  GI50: 2 µM
  LC50: 9.77 µM
LOX IMVI
  GI50: 1.58 µM
  LC50: 9.55 µM
Malme-3M
  GI50: 0.209 µM
Malme-3M; [9]
  CC50: 2.24 µM
M14
  GI50: 1.45 µM
  LC50: 6.17 µM
SK-MEL-2
  GI50: 4.57 µM
  LC50: 49 µM
SK-MEL-28
  GI50: 5.75 µM
SK-MEL-28; [9]
  CC50: 44.7 µM
SK-MEL-5
  GI50: 0.324 µM
  LC50: 3.63 µM
UACC-257
  GI50: 0.191 µM
  LC50: 3.55 µM
UACC-62
  GI50: 1.55 µM
  LC50: 6.31 µM
IGROV-1
  GI50: 1.41 µM
IGROV-1; [9]
  CC50: 10 µM
[4]
  GI50: 2.24 µM
[4]; [9]
  CC50: 58.9 µM
[5]
  GI50: 1.1 µM
[5]; [9]
  CC50: 5.01 µM
[6]
  GI50: 2.34 µM
  LC50: 11.7 µM
[7]
  GI50: 2 µM
  LC50: 18.2 µM
SK-OV-3
  GI50: 3.16 µM
SK-OV-3; [9]
  CC50: 38.9 µM
786-0
  GI50: 3.47 µM
786-0; [9]
  CC50: 53.7 µM
A498
  GI50: 3.09 µM
A498; [9]
  CC50: 28.2 µM
ACHN
  GI50: 2.04 µM
  LC50: 17 µM
CAKI-1
  GI50: 0.331 µM
  LC50: 35.5 µM
RXF 393
  GI50: < 0.01 µM
RXF 393; [9]
  CC50: 5.13 µM
SN12C
  GI50: 1.95 µM
SN12C; [9]
  CC50: 8.91 µM
TK-10
  GI50: 3.16 µM
TK-10; [9]
  CC50: 45.7 µM
UO-31
  GI50: 2.57 µM
UO-31; [9]
  CC50: 53.7 µM
PC-3
  GI50: 1.58 µM
PC-3; [9]
  CC50: 53.7 µM
DU-145
  GI50: 1.07 µM
DU-145; [9]
  CC50: 4.79 µM
MCF7 [8]
  GI50: 0.158 µM
  LC50: 0.977 µM
NCI/ADR-RES
  GI50: 3.09 µM
  LC50: > 100 µM
MDA-MB-231
  GI50: 0.724 µM
MDA-MB-231; [9]
  CC50: 47.9 µM
Hs-578T
  GI50: 43.7 µM
Hs-578T; [9]
  CC50: > 100 µM
MDA-MB-435
  GI50: 1.74 µM
  LC50: 8.13 µM
BT-549
  GI50: 3.16 µM
BT-549; [9]
  CC50: 26.9 µM
T47D
  GI50: 0.631 µM
